Several values for one entry are separate records, joined by “and”; a condition that tells them apart may be missing. Identical values can stand only once.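 Test compounds were applied to cells in 96-well plates for 48 hours at 5 doses. Here, GI50 denotes the concentration required for 50% inhibition of growth. TGI: concentration producing complete growth inhibition.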
Experiments:
Test in all cases: growth of human tumour cells (NCI), 48 h
NCI-H23 lung = system: NCI-H23 lung
RPMI-8226 leukemia = system: RPMI-8226 leukemia
MOLT-4 leukemia = system: MOLT-4 leukemia
SF-295 CNS = system: SF-295 CNS
A498 renal = system: A498 renal
OVCAR-5 ovarian = system: OVCAR-5 ovarian
SR leukemia = system: SR leukemia
CCRF-CEM leukemia = system: CCRF-CEM leukemia
SK-MEL-28 melanoma = system: SK-MEL-28 melanoma
NCI-H522 lung = system: NCI-H522 lung

Compound | GI50 (NCI-H23 lung) | TGI (NCI-H23 lung) | GI50 (RPMI-8226 leukemia) | TGI (RPMI-8226 leukemia) | GI50 (MOLT-4 leukemia) | TGI (MOLT-4 leukemia) | GI50 (SF-295 CNS) | TGI (SF-295 CNS) | GI50 (A498 renal) | TGI (A498 renal) | GI50 (OVCAR-5 ovarian) | TGI (OVCAR-5 ovarian) | GI50 (SR leukemia) | TGI (SR leukemia) | GI50 (CCRF-CEM leukemia) | TGI (CCRF-CEM leukemia) | GI50 (SK-MEL-28 melanoma) | TGI (SK-MEL-28 melanoma) | GI50 (NCI-H522 lung) | TGI (NCI-H522 lung)
COc1ccc(C/C(C)=C(/c2ccc(OCCN3CCCCC3)cc2)c2ccc(OC(=O)NCc3ccccc3)cc2)cc1 | 0.425 µM | 0.838 µM | 0.399 µM | 0.963 µM | 0.404 µM | 1.1 µM | 0.436 µM | 0.802 µM | 0.398 µM | 0.744 µM | 0.415 µM | 0.78 µM | 0.353 µM | 1.34 µM | 0.523 µM | 1.55 µM | 0.44 µM | 0.818 µM | 0.49 µM | 0.928 µM
COc1cccc(N2C(=O)C3c4[nH]c5ccccc5c4C4CCCC4C3C2=O)c1 (stereo not given) |  | > 10 µM |  | > 10 µM |  | > 10 µM |  | > 10 µM |  | 5.1 µM |  | > 10 µM |  | 4.09 µM |  | > 10 µM |  | > 10 µM |  | > 10 µM
COc1cccc(-c2c[nH]c3c(N/N=C/c4ccncc4)ncnc23)c1 | 2.98 µM | 11.8 µM | 5.62 µM | 14.4 µM | 4.42 µM | 19.6 µM | 3.5 µM | > 25 µM | 1.96 µM | 7.7 µM | 4.93 µM | 17.2 µM | 0.872 µM | > 24.1 µM | 1.93 µM | > 25 µM | 3.42 µM | > 16 µM | 2.25 µM | 7.78 µM
COc1ccc(CCN2CC=Cn3c2nc2ccccc2c3=O)cc1 | 0.0416 µM | > 100 µM | 0.0415 µM | 43 µM | 0.0523 µM | > 100 µM | 0.0269 µM | > 100 µM | 0.0203 µM | 0.0851 µM | 0.217 µM | > 100 µM | 0.0354 µM | > 100 µM | 0.03 µM | > 100 µM | 0.694 µM | > 100 µM | 0.0113 µM | 0.0375 µM
C[C@H]1CC[C@@]2(NC1)O[C@H]1C[C@H]3[C@@H]4CC[C@H]5C[C@@H](O)CC[C@]5(C)[C@H]4CC[C@]3(C)[C@H]1[C@@H]2C | 8.92 µM | 19.7 µM and > 100 µM | 7.82 µM | 31.4 µM and > 100 µM | > 50 µM | > 100 µM | 14.8 µM | 42.9 µM and > 100 µM | 13.8 µM | 35.2 µM and > 100 µM | 8.71 µM | 18.4 µM and > 100 µM |  | > 100 µM | 18.3 µM | 50 µM and > 100 µM | 17.9 µM | 50 µM | 13.6 µM | 29.3 µM and > 100 µM
C=CCN=C(N/N=C/c1ccc([N+](=O)[O-])o1)NS(=O)(=O)c1cc(C(=O)Nc2ccc(Cl)cc2)c(Cl)cc1SC | > 62.7 µM | > 100 µM | 0.504 µM |  |  | > 39.5 µM | > 100 µM | > 100 µM | 28.5 µM | > 100 µM | 14.1 µM | > 100 µM | 1.28 µM | > 23.6 µM | 4.81 µM | > 100 µM | 25.9 µM | > 100 µM | > 58.8 µM | > 100 µM
O=c1cnn(C2OC(CO)C(O)C2O)c(=S)[nH]1 (stereo not given) |  | > 100 µM |  | > 29.8 µM |  | > 30.7 µM |  | > 100 µM |  | > 100 µM |  | > 100 µM |  | 19.2 µM |  | > 100 µM |  | > 100 µM |  | > 55.4 µM
COc1ccc2c(c1)C(=O)c1ccc(OC)cc1C2=S |  | > 100 µM |  | > 100 µM |  | > 100 µM |  | > 100 µM |  | > 100 µM |  | > 100 µM |  | > 100 µM |  | > 100 µM |  | > 100 µM |  | > 100 µM
O=[N+]([O-])c1ccc(-n2nnc(C3=NCCN3)c2-c2ccccc2)cc1 |  | > 100 µM |  | > 100 µM |  | > 100 µM |  | > 100 µM |  | > 100 µM |  | > 100 µM |  | > 100 µM |  | > 100 µM |  | > 100 µM |  | > 100 µM
CN1CCN(C(=O)C(C)(C)c2ccc(C(=O)Nc3cn4cc(-c5ccncc5)ccc4n3)cc2)CC1 | 0.307 µM | 19.2 µM | 0.201 µM | 1.35 µM | 0.319 µM | > 46.7 µM | 0.482 µM | 30.8 µM | 0.157 µM | 0.418 µM | 0.405 µM | 7.16 µM | 0.135 µM | 4.7 µM | 0.28 µM | > 100 µM | 0.343 µM | 6.47 µM | 0.22 µM | 13.4 µM
NC(=O)N/N=C1/CCC(O)CC1CC(=O)O (stereo not given) |  | > 100 µM |  | > 100 µM |  | > 100 µM |  | > 100 µM |  | > 100 µM |  | > 100 µM |  | > 100 µM |  | > 100 µM |  | > 100 µM |  | > 100 µM
C=Cc1cncc(C#N)c1CCc1c(C#N)cncc1C=C | > 100 µM | > 100 µM | > 100 µM | > 100 µM | > 100 µM | > 100 µM | > 100 µM | > 100 µM | > 100 µM | > 100 µM | > 100 µM | > 100 µM |  | > 10 µM | > 100 µM | > 100 µM |  | > 10 µM | > 100 µM | > 100 µM
O=C1C=CC(=O)C2=C1[C@@H](O)C1CC=CC3C(=O)O[C@@H]2C31 (stereo not given in full) |  | > 68 µM |  | 57.7 µM |  | 56.5 µM |  | > 100 µM |  | > 100 µM |  | > 100 µM |  | > 100 µM |  | 42.9 µM |  | > 62.3 µM |  | 34.8 µM

Reference: PubChem BioAssay (NCI)
